Results on three compounds are retold here after patent publication US11208412B2 (DAEGU-GYEONGBUK MEDICAL INNOVATION FOUNDATION, priority 2017, dated 2021).

Common to all, as to assay: Kinase selectivity, DiscoverX scanMAX Kinase assay panel (% control)
Holding throughout (assay type): binding

The target in test [1] is T1, kinases of the scanMAX Kinase assay panel (Homo sapiens, UniProt O14730).
T1 construct: purchased DiscoverX Co. (contract measurement) scanMAX Kinase assay panel
T1 sequence (O14730 1-519): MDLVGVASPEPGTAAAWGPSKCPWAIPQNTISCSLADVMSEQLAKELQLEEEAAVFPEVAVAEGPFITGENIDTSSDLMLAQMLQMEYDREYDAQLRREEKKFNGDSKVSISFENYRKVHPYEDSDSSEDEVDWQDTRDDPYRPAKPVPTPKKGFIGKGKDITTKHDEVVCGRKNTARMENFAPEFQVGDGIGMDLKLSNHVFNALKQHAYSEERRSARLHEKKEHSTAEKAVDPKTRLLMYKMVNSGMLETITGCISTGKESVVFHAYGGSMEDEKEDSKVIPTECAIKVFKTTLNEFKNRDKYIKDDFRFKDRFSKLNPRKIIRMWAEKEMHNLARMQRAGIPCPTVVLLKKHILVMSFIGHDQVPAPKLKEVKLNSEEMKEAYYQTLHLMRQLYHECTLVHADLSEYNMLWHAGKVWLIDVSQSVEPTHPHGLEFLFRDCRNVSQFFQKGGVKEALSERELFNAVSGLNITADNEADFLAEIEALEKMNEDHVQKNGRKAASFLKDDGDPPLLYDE
As to conditions: kinase RIOK3; 1 uM in DMSO. The procedure, abridged:
(§1)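 Read-out is % control, normalised so a positive-control compound sits at 0% and DMSO at 100%: (test − positive)/(negative − positive)×100. Each kinase received the compound at 1 uM in DMSO. A value below 35% counts as activity.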

Test [2] concerns the target T2, kinases of the scanMAX Kinase assay panel (Homo sapiens, UniProt P43405).
T2 construct: purchased DiscoverX Co. (contract measurement) scanMAX Kinase assay panel
As to conditions: kinase SYK; 1 uM in DMSO. The procedure, abridged: as §1

The target of test [3] is T3, kinases of the scanMAX Kinase assay panel (Homo sapiens, UniProt Q6ZN16).
T3 construct: purchased DiscoverX Co. (contract measurement) scanMAX Kinase assay panel
T3 sequence (Q6ZN16 1-1313): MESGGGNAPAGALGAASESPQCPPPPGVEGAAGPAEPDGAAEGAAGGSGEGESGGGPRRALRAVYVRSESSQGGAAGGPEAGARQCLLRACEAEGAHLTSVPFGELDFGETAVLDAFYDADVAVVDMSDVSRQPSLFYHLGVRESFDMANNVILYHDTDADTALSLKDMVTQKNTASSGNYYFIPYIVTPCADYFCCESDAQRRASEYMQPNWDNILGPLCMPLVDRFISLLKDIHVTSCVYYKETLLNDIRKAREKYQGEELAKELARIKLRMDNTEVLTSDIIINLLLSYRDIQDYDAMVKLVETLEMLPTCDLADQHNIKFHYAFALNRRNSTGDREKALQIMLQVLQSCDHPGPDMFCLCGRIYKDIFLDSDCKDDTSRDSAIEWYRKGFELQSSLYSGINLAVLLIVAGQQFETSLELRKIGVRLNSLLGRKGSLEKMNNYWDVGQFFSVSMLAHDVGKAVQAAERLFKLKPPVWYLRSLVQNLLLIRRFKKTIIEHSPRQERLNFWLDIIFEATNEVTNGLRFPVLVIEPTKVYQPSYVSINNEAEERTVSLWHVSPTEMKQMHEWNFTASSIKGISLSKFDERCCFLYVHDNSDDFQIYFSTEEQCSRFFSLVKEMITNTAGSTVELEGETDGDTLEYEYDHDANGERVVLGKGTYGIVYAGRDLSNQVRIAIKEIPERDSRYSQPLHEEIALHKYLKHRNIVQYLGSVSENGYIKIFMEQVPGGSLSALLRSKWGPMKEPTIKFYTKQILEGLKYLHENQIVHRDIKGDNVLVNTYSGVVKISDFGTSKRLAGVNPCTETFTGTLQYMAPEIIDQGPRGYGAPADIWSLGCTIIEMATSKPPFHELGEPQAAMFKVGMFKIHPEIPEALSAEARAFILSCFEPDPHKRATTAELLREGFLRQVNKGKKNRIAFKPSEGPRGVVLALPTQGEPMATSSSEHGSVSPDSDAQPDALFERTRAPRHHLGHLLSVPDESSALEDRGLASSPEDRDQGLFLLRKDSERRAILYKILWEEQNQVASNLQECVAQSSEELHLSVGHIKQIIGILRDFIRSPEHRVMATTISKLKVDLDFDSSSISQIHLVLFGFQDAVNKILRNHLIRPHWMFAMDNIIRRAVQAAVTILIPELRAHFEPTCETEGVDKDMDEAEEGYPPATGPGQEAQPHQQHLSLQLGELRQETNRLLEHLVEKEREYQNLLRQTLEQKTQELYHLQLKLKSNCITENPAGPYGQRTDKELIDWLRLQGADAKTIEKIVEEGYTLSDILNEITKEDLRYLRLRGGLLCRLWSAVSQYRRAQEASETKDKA
As to conditions: MAP3K15; 1 uM. The procedure, abridged:
as §1

The target of test [4] is T4, kinases of the scanMAX Kinase assay panel (Homo sapiens, UniProt Q8TD08).
T4 construct: purchased DiscoverX Co. (contract measurement) scanMAX Kinase assay panel
T4 sequence (Q8TD08 1-544): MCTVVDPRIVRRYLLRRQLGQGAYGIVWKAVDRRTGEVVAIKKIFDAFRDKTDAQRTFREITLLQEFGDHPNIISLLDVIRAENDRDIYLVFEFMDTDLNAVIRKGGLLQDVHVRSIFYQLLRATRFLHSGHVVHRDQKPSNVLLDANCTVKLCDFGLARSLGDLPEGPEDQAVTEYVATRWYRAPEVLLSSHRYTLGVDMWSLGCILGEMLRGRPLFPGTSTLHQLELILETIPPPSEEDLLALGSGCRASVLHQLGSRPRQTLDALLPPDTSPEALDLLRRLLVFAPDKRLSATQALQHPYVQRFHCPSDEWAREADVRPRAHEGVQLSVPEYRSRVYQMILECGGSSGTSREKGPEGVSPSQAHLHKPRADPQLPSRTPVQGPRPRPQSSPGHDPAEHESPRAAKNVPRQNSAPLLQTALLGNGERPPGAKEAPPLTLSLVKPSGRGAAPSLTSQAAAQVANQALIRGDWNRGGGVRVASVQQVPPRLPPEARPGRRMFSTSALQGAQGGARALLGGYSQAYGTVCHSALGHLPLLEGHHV
The following applies: ERK8; 1 uM. The procedure, abridged: as §1

As to `CNc1nc(Nc2ccc(C(=O)N3CCOCC3)cc2OC)nc2[nH]cc(C#N)c12` [Example 1, 2-((2-methoxy-4-(morpholine-4-carbonyl)phenyl)amino)-4-(methylamino)-7H-pyrrolo[2,3-d]pyrimidine-5-carbonitrile], the remaining binding at 1 µM in test [1] was 97%; in test [2] it was 62%; in test [3] it was 35%; in test [4], 100%.
For `CC1(Nc2nc(Nc3cnn([C@H]4CCN(C5COC5)C[C@@H]4F)c3Cl)nc3[nH]cc(C#N)c23)CC1` [Example 52, 2-((5-chloro-1-((3S,4S)-3-fluoro-1-(oxetane-3-yl)piperidine-4-yl)-1H-pyrazole-4-yl)amino)((1-methylcyclopropyl)amino)-7H-pyrrolo[2,3-d]pyrimidine-5-carbonitrile], in that order: 0.4%, 0.4%, 27% and 62%.
For `CCNc1nc(Nc2ccc(C(=O)N3CCC(N4CCOCC4)CC3)cc2OC)nc2[nH]cc(C(F)(F)F)c12` [Example 104, (4-((4-(ethylamino)-5-(trifluoromethyl)-7H-pyrrolo[2,3-d]pyrimidine-2-yl)amino)-3-methoxyphenyl)(4-morpholinopiperidine-1-yl)methanone], in that order: 100%, 70%, 61% and 100%.
